Like-named read-outs stand apart in the source and are kept apart here. Values belong to the compound of their own block, whether it stands above or below them.
Molecular target: CA IX (Homo sapiens, UniProt Q16790)
Assay: biochemical
Conditions: for Ki: read-out: pKi (exp.) (converted)
[1] = experimental value from the library Ki (IDs A…, B…), values equal log10 of Ki in nM
[2] = experimental value used for the QSPR model, library compounds (IDs A…, B…), equals log10 of Ki in nM
[3] = library compounds with IDs A… and B…, from observed Ki (nM)

Structure (SMILES): O=S1(=O)C=Cc2cc(-c3nnnn3-c3cccc4ccccc34)ccc2O1 [A0400]
log10 of Ki in nM [1]: 0.813

Structure (SMILES): CC1(C)CC(=O)C2=C(C1)N(c1ccc(S(N)(=O)=O)cc1)C1=C(C(=O)CC(C)(C)C1)C2c1ccc([N+](=O)[O-])cc1 [B0775]
log10 of Ki in nM [2]: 3.009

Structure (SMILES): NS(=O)(=O)c1ccc(CNC(=O)Cc2ccc(F)cc2)cc1 [A0160]
log10 of Ki in nM [1]: 0.491

Structure (SMILES): NOC(=O)c1cc(Cl)c(Cl)c(C(=O)ON)c1 [B0452]
log10 of Ki in nM: 1.699

Structure (SMILES): COc1ccc(C2=Nn3c(nnc3-c3ccc(S(N)(=O)=O)cc3)SC2)cc1 [A0402]
log10 of Ki in nM [1]: 0.813

Structure (SMILES): CCCCC(=O)OC[C@H]1O[C@@H](n2cc(-c3ccc(S(N)(=O)=O)cc3)nn2)[C@H](OC(=O)CCCC)[C@@H](OC(=O)CCCC)[C@@H]1OC(=O)CCCC [A2148]
log10 of Ki in nM [2]: 2.978

Structure (SMILES): NS(=O)(=O)c1ccc(-n2cc(CO[C@@H]3O[C@H](COCc4ccccc4)[C@@H](OCc4ccccc4)[C@H]3OCc3ccccc3)nn2)cc1 [A1497]
log10 of Ki in nM [3]: 1.924

Structure (SMILES): NS(=O)(=O)c1cc(-c2cnc(C(=O)N3CCOCC3)o2)cs1 [B0343]
log10 of Ki in nM [2]: 1.447

Structure (SMILES): COc1cccc(C(=O)CN2C(=O)C=C(C)OS2(=O)=O)c1 [A1737]
log10 of Ki in nM [1]: 2.207

Structure (SMILES): COC(=O)c1cn(-c2ccc(S(N)(=O)=O)cc2)nc1-c1ccc(F)cc1 [A0626]
log10 of Ki in nM [1]: 0.973

Structure (SMILES): Cc1nnnn1-c1ccc2c(c1)C=CS(=O)(=O)O2 [A1375]
log10 of Ki in nM [3]: 1.819

Ki [2]: 10000 nM
Structure (SMILES): O=C(Cc1ccccc1Br)Oc1ccc2c(c1)OS(=O)(=O)C=C2 [A2451]

Structure (SMILES): NS(=O)(=O)c1ccc(-n2cc(-c3ccc(Br)cc3)c3c2N=CN2NC(=O)CN=C32)cc1 [A0710]
log10 of Ki in nM [3]: 1.068

Structure (SMILES): Cc1cc(C)c(S(=O)(=O)Nc2cccc(C3C4=C(CC(C)(C)CC4=O)N(c4ccc(S(N)(=O)=O)cc4)C4=C3C(=O)CC(C)(C)C4)c2)c(C)c1 [A1535]
log10 of Ki in nM [3]: 1.954

Structure (SMILES): CCCN(CCC)S(=O)(=O)c1ccc(C(=O)N[C@@H](CCSC)C(N)=O)cc1 [A0860]
log10 of Ki in nM [3]: 1.301

Structure (SMILES): CCCCC(=O)OC[C@H]1O[C@@H](n2cc(-c3ccc(S(N)(=O)=O)cc3)nn2)[C@H](OC(=O)CCCC)[C@@H](OC(=O)CCCC)[C@H]1OC(=O)CCCC [A1944]
log10 of Ki in nM [1]: 2.525

Structure (SMILES): CCOC(=O)c1cc(O)ccc1O [A2120]
log10 of Ki in nM: 2.934

Structure (SMILES): O=NCc1c(O)ccc(-c2ccc(O)cc2)c1Cl [B0828]
log10 of Ki in nM [2]: 3.780

Structure (SMILES): COc1ccc(NC(=S)Nc2c(C#N)c(-c3ccc(Br)cc3)cn2-c2ccc(S(N)(=O)=O)cc2)cc1 [A1714]
log10 of Ki in nM [3]: 2.149

Structure (SMILES): Cc1cccc(Nc2nc(Cl)nc(Nc3ccc(S(N)(=O)=O)cc3)n2)c1 [A0317]
log10 of Ki in nM [2]: 0.708

Structure (SMILES): NS(=O)(=O)c1ccc(OCCN2CCOCC2)cc1 [A0728]
log10 of Ki in nM [2]: 1.100

Structure (SMILES): O=S1(=O)C=Cc2cc(-n3nncc3-c3cccc(C(F)(F)F)c3)ccc2O1 [A0646]
log10 of Ki in nM [3]: 0.982

Structure (SMILES): NS(=O)(=O)c1ccc(C(=O)NCCc2ccc(O)c(O)c2)cc1 [A0813]
log10 of Ki in nM [1]: 1.230

Ki [1]: 1000 nM
Structure (SMILES): Nc1nc(N)c2nc(CNCCc3ccc(S(=O)(=O)O)cc3)cnc2n1 [A2175]

Structure (SMILES): NS(=O)(=O)c1ccc(-c2cnc(C3CCC3)o2)s1 [B0649]
log10 of Ki in nM [1]: 2.193

Structure (SMILES): Nc1c(Cl)cc(S(=O)(=O)Nc2nnc(S(N)(=O)=O)s2)cc1Br [A0922]
log10 of Ki in nM: 1.362

Structure (SMILES): Fc1ccc(-c2nn(-c3ccccc3)cc2-c2nc3ccccc3[nH]2)cc1 [A1367]
log10 of Ki in nM [3]: 1.813

Structure (SMILES): CC(=O)OC[C@H]1O[C@@H]([S+]([O-])Cc2cn(-c3ccc(S(N)(=O)=O)cc3)nn2)[C@H](OC(C)=O)[C@@H](OC(C)=O)[C@@H]1OC(C)=O (stereo partly drawn) [B0212]
log10 of Ki in nM: 0.996

Structure (SMILES): NS(=O)(=O)c1ccc2nc(-n3cc(C=O)c(-c4ccc(F)cc4)n3)sc2c1 [A2181]
log10 of Ki in nM [2]: 3.009

Structure (SMILES): NS(=O)(=O)c1ccc(NC(=O)c2ccc(/N=C3\C(=O)Nc4ccc([N+](=O)[O-])cc43)cc2)cc1 [A1847]
log10 of Ki in nM [1]: 2.375

Structure (SMILES): NS(=O)(=O)c1ccc(CNS(=O)(=O)c2ccc(NC(=O)c3c(F)c(F)cc(F)c3F)cc2)cc1 [A0340]
log10 of Ki in nM [1]: 0.740

Structure (SMILES): O=C1c2ccccc2S(=O)(=O)N1Cc1cccc([N+](=O)[O-])c1 [A0700]
log10 of Ki in nM [1]: 1.041

Structure (SMILES): CC(=O)OC[C@H]1O[C@@H]([S+]([O-])Cc2cn(-c3ccc(S(N)(=O)=O)cc3)nn2)[C@H](OC(C)=O)[C@@H](OC(C)=O)[C@H]1OC(C)=O (stereo partly drawn) [B0152]
log10 of Ki in nM: 0.886

Source: PMC6151961 (Journal of Enzyme Inhibition and Medicinal Chemistry, 2018)
